ChEMBL document CHEMBL3351913, “Malonate-based inhibitors of mammalian serine racemase: kinetic characterization and structure-based computational study” (Eur J Med Chem, 2015)

Biological target: T1, Serine racemase (Mus musculus, UniProt Q9QZX7)
T1 sequence (Q9QZX7 whole entry): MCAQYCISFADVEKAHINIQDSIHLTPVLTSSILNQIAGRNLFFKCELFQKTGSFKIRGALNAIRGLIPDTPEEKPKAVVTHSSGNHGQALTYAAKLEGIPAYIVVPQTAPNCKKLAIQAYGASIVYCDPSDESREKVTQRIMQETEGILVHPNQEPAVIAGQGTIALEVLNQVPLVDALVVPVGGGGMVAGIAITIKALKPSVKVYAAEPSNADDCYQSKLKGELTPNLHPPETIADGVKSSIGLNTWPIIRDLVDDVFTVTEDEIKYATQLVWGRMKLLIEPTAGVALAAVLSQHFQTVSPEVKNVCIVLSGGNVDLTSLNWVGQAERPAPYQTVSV
Test: Inhibition of mouse serine racemase using L-serine substrate by reversed-phase HPLC analysis

First: O=C(O)CC(=O)O [MALONIC ACID]
Second: NC(C(=O)O)C(=O)O
The IC50 of the first is 6-fold lower: 67 µM for the first, 400 µM for the second.

Going from CC(C)(C(=O)O)C(=O)O to O=C(O)C(Cl)(Cl)C(=O)O, the IC50 falls from 5630 µM to 57 µM (99-fold).

Compared with CC(C(=O)O)C(=O)O [METHYLMALONIC ACID], O=C(O)C(O)C(=O)O is 20-fold lower in IC50: 1850 µM for the first, 94 µM for the second. The second is the more potent here.

Compared with O=C(O)C(C(=O)O)c1ccsc1, O=C(O)C(Cl)C(=O)O is 9-fold lower in IC50: 7030 µM for the first, 780 µM for the second. The second is the more potent here.

Going from O=C(O)C(CO)(CO)C(=O)O to O=C(O)C(F)(F)C(=O)O, the IC50 falls from 40600 µM to 2160 µM (19-fold).

Biological target: T1, Serine racemase
Test: Inhibition of mouse serine racemase by Lineweaver-Burk plot

O=C(O)CC(=O)O [MALONIC ACID] and O=C(O)C(Cl)(Cl)C(=O)O are within 1.5-fold of each other in Ki: 27 µM for the first, 19 µM for the second.
